Reference: patent US8940913B2, “Herbicides” (Syngenta Crop Protection, LLC, priority 2007, dated 2015)

Key:
Type in all cases: in vivo
[1] = system: Echinochloa crus-galli (ECHCG); assay: Pre-emergence herbicidal activity, glasshouse pot test; conditions: 480 h, rate 250 g/ha, evaluated 20 days later, 100=total damage to plant, 0=no damage to plant
Protocol: (§1) Monocotyledonous and dicotyledonous test plants were sown in standard soil in pots. After cultivation for one day (pre-emergence) or after 10 days cultivation (post-emergence) under controlled conditions in a glasshouse, the plants were sprayed with an aqueous spray solution derived from the formulation of the technical active ingredient in 0.6 ml acetone and 45 ml formulation solution containing 10.6% Emulsogen EL (Registry number 61791-12-6), 42.2% N-methylpyrrolidone, 42.2% dipropylene glycol monomethyl ether (Registry number 34590-94-8) and 0.2% X-77 (Registry number 11097-66-8). The test plants were then grown in a greenhouse under optimum conditions until, 15 days later for post-emergence and 20 days for pre-emergence, the test was evaluated (100=total damage to plant; 0=no damage to plant). Test Plants: Alopecurus myosuroides (ALOMY), Avena fatua (AVEFA), Lolium perenne (LOLPE), Setaria faberi (SETFA), Digitaria sanguinalis (DIGSA), Echinochloa crus-galli (ECHCG)

Avena fatua (AVEFA) [2] = assay: as above; conditions: 480 h, rate 250 g/ha, evaluated 20 days later, 100=total damage to plant, 0=no damage to plant
Protocol: as §1

[3] = system: Alopecurus myosuroides (ALOMY); assay: as above; conditions: 480 h, rate 250 g/ha, evaluated 20 days later, 100=total damage to plant, 0=no damage to plant
Protocol: as §1

Lolium perenne (LOLPE) [4] = assay: as above; conditions: 480 h, rate 250 g/ha, evaluated 20 days later, 100=total damage to plant, 0=no damage to plant
Protocol: as §1

[5] = system: Digitaria sanguinalis (DIGSA); assay: as above; conditions: 480 h, rate 250 g/ha, evaluated 20 days later, 100=total damage to plant, 0=no damage to plant
Protocol: as §1

Setaria faberi (SETFA) [6] = assay: as above; conditions: 480 h, rate 250 g/ha, evaluated 20 days later, 100=total damage to plant, 0=no damage to plant
Protocol: as §1

[7] = system: Echinochloa crus-galli (ECHCG); assay: Post-emergence herbicidal activity, glasshouse pot test; conditions: 360 h, rate 125 g/ha, evaluated 15 days later, 100=total damage to plant, 0=no damage to plant
Protocol: as §1

Avena fatua (AVEFA) [8] = assay: as above; conditions: 360 h, rate 125 g/ha, evaluated 15 days later, 100=total damage to plant, 0=no damage to plant
Protocol: as §1

[9] = system: Alopecurus myosuroides (ALOMY); assay: as above; conditions: 360 h, rate 125 g/ha, evaluated 15 days later, 100=total damage to plant, 0=no damage to plant
Protocol: as §1

Lolium perenne (LOLPE) [10] = assay: as above; conditions: 360 h, rate 125 g/ha, evaluated 15 days later, 100=total damage to plant, 0=no damage to plant
Protocol: as §1

[11] = system: Digitaria sanguinalis (DIGSA); assay: as above; conditions: 360 h, rate 125 g/ha, evaluated 15 days later, 100=total damage to plant, 0=no damage to plant
Protocol: as §1

Setaria faberi (SETFA) [12] = assay: as above; conditions: 360 h, rate 125 g/ha, evaluated 15 days later, 100=total damage to plant, 0=no damage to plant
Protocol: as §1

Row | SMILES | pest or weed control at 250 g/ha [1] | pest or weed control at 250 g/ha (Avena fatua (AVEFA) [2]) | pest or weed control at 250 g/ha [3] | pest or weed control at 250 g/ha (Lolium perenne (LOLPE) [4]) | pest or weed control at 250 g/ha [5] | pest or weed control at 250 g/ha (Setaria faberi (SETFA) [6]) | pest or weed control at 125 g/ha [7] | pest or weed control at 125 g/ha (Avena fatua (AVEFA) [8]) | pest or weed control at 125 g/ha [9] | pest or weed control at 125 g/ha (Lolium perenne (LOLPE) [10]) | pest or weed control at 125 g/ha [11] | pest or weed control at 125 g/ha (Setaria faberi (SETFA) [12])
1 | CCc1ccc(-c2ccc(Cl)c(F)c2F)cc1C1=C(O)[C@H]2[C@@H](C1=O)[C@]1(C)CC[C@@]2(C)O1 [Compound T38] | 100% | 30% | 0% | 50% | 30% | 90% | 100% | 90% | 100% | 50% | 100% | 80%
2 | CCc1ccc(-c2ccc(Cl)cc2F)cc1C1=C(O)[C@H]2[C@@H](C1=O)[C@@H]1CC[C@H]2O1 [Compound T10] | 100% | 70% | 70% | 80% | 100% | 100% | 100% | 90% | 90% | 90% | 100% | 100%
3 | Cc1cc(-c2ccccc2)cc(C)c1C1=C(OC(=O)C(C)(C)C)[C@H]2[C@@H](C1=O)[C@@H]1CC[C@@]2(C)O1 [Compound P8] | 90% | 90% | 100% | 100% | 100% | 100% | 100% | 100% | 100% | 80% | 100% | 100%
4 | CCc1ccc(-c2ccc(Cl)c(Cl)c2)cc1C1=C(O)[C@H]2[C@@H](C1=O)[C@@H]1CC[C@H]2O1 [Compound T14] | 90% | 20% | 10% | 40% | 90% | 100% | 100% | 80% | 90% | 30% | 100% | 100%
5 | CCc1cc(-c2ccc(C)cc2)cc(CC)c1C1=C(OC(C)=O)[C@H]2[C@@H](C1=O)[C@@H]1CC[C@H]2O1 [Compound P9] | 100% | 60% | 50% | 70% | 40% | 60% | 100% | 80% | 80% | 80% | 100% | 90%
6 | CCc1ccc(-c2ccc(Cl)cc2Cl)cc1C1=C(O)[C@H]2[C@@H](C1=O)[C@]1(C)CC[C@@]2(C)O1 [Compound T24] | 100% | 30% | 10% | 30% | 100% | 100% | 100% | 90% | 90% | 60% | 100% | 100%
7 | CCc1ccc(-c2ccc(Cl)c(OC)c2)cc1C1=C(O)[C@H]2[C@@H](C1=O)[C@@H]1CC[C@H]2O1 [Compound T15] | 100% | 10% | 20% | 20% | 90% | 80% | 100% | 90% | 100% | 40% | 100% | 100%
